PubChem BioAssay AID1996
≈ marks a conversion by molar mass, not a printed value.

Conditions: buffer; pH 7.4; 200.0 µM

Going from `NC(=O)c1cc[n+](Cc2ccccc2Cl)cc1.[Br-]` to `O=C(NCc1ccccc1F)c1ccncc1`, the solubility kinetic falls from > 49.1 µg/mL to 29.5 µg/mL (≈ 128 µM).

`CCC(=O)c1ccc(OCC(=O)N2CCCC2)c(OC)c1` and `Cc1ccc(NS(=O)(=O)c2cccc(C(=O)N3CCCCC3)c2)cc1` cannot be ordered by solubility kinetic: > 43.7 µg/mL for the first, > 53.8 µg/mL for the second.

First: O=S(=O)(/N=C(/Nc1cccnc1)c1ccccc1)c1ccc(F)cc1F
Second: O=C(Nc1ccc(NC(=O)c2cccnc2)cc1)c1ccccc1
The solubility kinetic of the first is higher: > 56 µg/mL for the first, 0.8 µg/mL (≈ 2.52 µM) for the second.

`O=C(NCC1CCCO1)c1ccc(Br)s1` (configuration not stated) and `O=C(CCc1nc(-c2ccccc2Cl)no1)NCC1CCCO1` (configuration not stated) are within 1.5-fold of each other in solubility kinetic: 42.4 µg/mL (≈ 146 µM) for the first, 47.7 µg/mL (≈ 142 µM) for the second.

Going from `CCCNC(=O)COC(=O)/C(C#N)=C/c1cc(C)n(CCC)c1C` to `CCCCC(=O)Nc1cc(OC)c(NC(=S)NC)cc1OC`, the solubility kinetic rises from 1.6 µg/mL (≈ 4.83 µM) to > 48.8 µg/mL.

Compared with `COc1cc(N)ccc1-c1cc2ccccc2oc1=O`, `COc1cccc2cc(C(=O)NCCc3ccccc3)c(=O)oc12` is lower in solubility kinetic: > 40.1 µg/mL for the first, < 0.7 µg/mL for the second.

`COc1ccc(C(CC(=O)O)N2Cc3ccccc3C2=O)cc1` (configuration not stated) and `COc1cccc(NC(=O)CC(=O)c2ccccc2)c1` cannot be ordered by solubility kinetic: > 46.7 µg/mL for the first, > 40.4 µg/mL for the second.

`O=C(Nc1cc(S(=O)(=O)N2CCOCC2)ccc1N1CCCCC1)c1ccccc1Br` and `Cc1oc(S(=O)(=O)N2CCCCC2)cc1NC(=O)Nc1ccc(F)cc1` are within 1.5-fold of each other in solubility kinetic: 6.1 µg/mL (≈ 12 µM) for the first, 5.5 µg/mL (≈ 14.4 µM) for the second.

Compared with `Cc1ccccc1CNc1ncnc2cc(Cl)ccc12`, `CCn1cnc2cc(NCc3ccc(Cl)cc3)ccc21` is 68-fold higher in solubility kinetic: 0.5 µg/mL (≈ 1.76 µM) for the first, 34 µg/mL (≈ 119 µM) for the second.

First: Cc1[nH]c2ccccc2c1-c1nc(N)sc1C
Second: Cc1cc(NC(=O)C(=O)c2c(C)[nH]c3ccccc23)no1
The solubility kinetic of the first is higher: > 36.5 µg/mL for the first, 28.2 µg/mL (≈ 99.5 µM) for the second.

Compared with `Cc1cc2cc(CNC(=S)NC3CCCCC3)ccc2[nH]1`, `O=C(NC1CCCC1)C1CCN(C(=O)NCc2ccccc2)CC1` is higher in solubility kinetic: 12.5 µg/mL (≈ 41.5 µM) for the first, > 49.4 µg/mL for the second.

Compared with `O=C(COc1ccccc1)OCC(=O)c1c[nH]c2ccccc12`, `Fc1ccc(CNCCc2c[nH]c3ccccc23)cc1` is higher in solubility kinetic: 8.9 µg/mL (≈ 28.8 µM) for the first, > 40.2 µg/mL for the second.

`CCCCCC(O)(CCN1CCCCC1)c1ccc(OCC)cc1.Cl` (configuration not stated) and `CCCCOP(=O)(OCCCC)C(O)c1ccc(N(C)C)cc1` (configuration not stated) cannot be ordered by solubility kinetic: 53.5 µg/mL for the first, > 51.5 µg/mL for the second.

Going from `Cc1cc(NC(=O)COc2ccc([N+](=O)[O-])cc2)no1` to `COc1cc([N+](=O)[O-])ccc1NC(=O)NCc1ccco1`, the solubility kinetic rises from 5.8 µg/mL (≈ 20.9 µM) to 13.8 µg/mL (≈ 47.4 µM) (2.4-fold).

`CCc1nc(N)nc(N)c1-c1ccc(Cl)cc1` and `CCC(CO)Nc1ncnc2onc(-c3ccc(F)cc3)c12` (configuration not stated) cannot be ordered by solubility kinetic: > 37.3 µg/mL for the first, > 45.3 µg/mL for the second.

`Cc1csc(NC(=O)CCCC(=O)c2ccccc2)n1` and `N/C(=N\OCC(=O)Nc1ccc(F)c(Cl)c1)c1ccccc1` cannot be ordered by solubility kinetic: > 43.3 µg/mL for the first, > 48.3 µg/mL for the second.

Compared with `CC(C)(C)C(=O)Nc1ccc(S(=O)(=O)NC2=NCCCCC2)cc1`, `CC(C)(C)c1ccc(S(=O)(=O)NCC2CCCO2)cc1` (configuration not stated) is lower in solubility kinetic: > 52.7 µg/mL for the first, 34.9 µg/mL (≈ 117 µM) for the second.

Compared with `Cc1ccc(CCC(=O)Nc2ccc(N(C)C)cc2)o1`, `COC(=O)c1sccc1NC(=S)Nc1ccc(OC)cc1` is 2-fold higher in solubility kinetic: 17.5 µg/mL (≈ 64.3 µM) for the first, 35.3 µg/mL (≈ 109 µM) for the second.

First: O=C(Nc1nc2ccc(F)cc2s1)Oc1ccccc1
Second: O=C(O)c1ccc2cc(-c3ccccc3)[nH]c2c1
The solubility kinetic of the first is 18-fold lower: 1.7 µg/mL (≈ 5.9 µM) for the first, 31.2 µg/mL (≈ 132 µM) for the second.

Going from `CCOC(=O)c1ccc(Nc2c(OCC)c(=O)c2=O)cc1` to `Br.CC(=O)c1sc(Nc2ccc(C)cc2)nc1C`, the solubility kinetic rises from 21.6 µg/mL (≈ 74.7 µM) to > 49.1 µg/mL.

Going from `O=C(NCc1ccccn1)Nc1cc(Cl)cc(Cl)c1` to `CC(=O)Nc1ccc(NC(=O)Nc2cccc(Cl)c2)cc1`, the solubility kinetic falls from 40.8 µg/mL (≈ 138 µM) to 1.4 µg/mL (≈ 4.61 µM) (29-fold).

`NC(=S)NC1CC2C=CC1C2` (configuration not stated) and `CN(CC12CC3CC(CC(C3)C1)C2)C(=O)c1ccco1` cannot be ordered by solubility kinetic: > 25.2 µg/mL for the first, 37.8 µg/mL (≈ 138 µM) for the second.

`Cc1cc(C)c(S(=O)(=O)Nc2ccc3[nH]c(=O)[nH]c3c2)c(C)c1` and `Cc1ccc(-c2csc3nc(C(C)C)oc(=O)c23)c(C)c1` are within 1.5-fold of each other in solubility kinetic: 2.8 µg/mL (≈ 8.45 µM) for the first, 3.9 µg/mL (≈ 13 µM) for the second.

`Cc1ccnc(N2CCC(C(=O)NNC(=O)c3ccncc3)CC2)n1` and `O=C(c1cccc(Cl)c1)N1CCN(c2ncccn2)CC1` cannot be ordered by solubility kinetic: > 51.1 µg/mL for the first, > 45.4 µg/mL for the second.

First: Cc1cccn2c(=O)c3cc(C(=O)N4COCC4(C)C)sc3nc12
Second: Cc1cccn2c(=O)nc(SCC(=O)NCc3ccc(F)cc3)nc12
The solubility kinetic of the first is lower: 9.2 µg/mL (≈ 26.8 µM) for the first, > 53.8 µg/mL for the second.

Compared with `COc1ccccc1NC(=O)/C(=C/c1cccs1)NC(=O)c1ccco1`, `COc1ccccc1OCCNC(=O)c1ccco1` is lower in solubility kinetic: > 55.3 µg/mL for the first, 33.4 µg/mL (≈ 128 µM) for the second.

Compared with `O=[N+]([O-])c1ccc(Cl)cc1N1CCCCC1`, `O=C(NCCN1CCOCC1)c1ccc(Cl)cc1` is higher in solubility kinetic: < 0.3 µg/mL for the first, > 40.3 µg/mL for the second.

`Cc1ccc(CNc2cccnc2)cc1` and `Cc1ccc(-c2nc(CNC(=O)c3ccco3)cs2)cc1` cannot be ordered by solubility kinetic: > 29.7 µg/mL for the first, 42 µg/mL (≈ 141 µM) for the second.

`Cc1cc(C)c2c(CC(=O)NN(C)C)coc2c1` and `Cc1[nH]c2c(C)cccc2c1CC(=O)O` cannot be ordered by solubility kinetic: > 36.9 µg/mL for the first, > 30.5 µg/mL for the second.

`O=C(N/C(=C\c1ccco1)C(=O)N1CCOCC1)c1ccco1` and `COc1ccc(-c2cc(C(=O)N3CCOCC3)no2)cc1` cannot be ordered by solubility kinetic: > 47.4 µg/mL for the first, > 43.2 µg/mL for the second.

First: CCN(CC)C(=O)C(Oc1ccc(C)nc1[N+](=O)[O-])c1ccccc1 (configuration not stated)
Second: CSc1nc(C(C)C)ccc1CNC(=O)CC(C)c1ccccc1 (configuration not stated)
The solubility kinetic of the first is 37-fold higher: 48.6 µg/mL (≈ 142 µM) for the first, 1.3 µg/mL (≈ 3.8 µM) for the second.

Compared with `COc1cc2c(cc1OC)CN(CC(=O)Nc1cccc([N+](=O)[O-])c1)CC2`, `COc1ccc(NC(=S)N2CCc3ccccc32)cc1OC` is higher in solubility kinetic: 14.9 µg/mL (≈ 40.1 µM) for the first, > 47.2 µg/mL for the second.

Going from `CCOc1ccc(C2Nc3ccccc3C(CC)(CC)O2)cc1` (configuration not stated) to `COc1ccc(-c2nc(S(=O)(=O)c3ccccc3)c(NCCCN3CCOCC3)o2)cc1`, the solubility kinetic rises from 2.1 µg/mL (≈ 6.74 µM) to 67.8 µg/mL (≈ 148 µM) (32-fold).

Going from `COc1cccc(Nc2c([N+](=O)[O-])cncc2[N+](=O)[O-])c1` to `Cc1cccc(C)c1NC(=O)CNC(=O)Cc1ccccc1[N+](=O)[O-]`, the solubility kinetic falls from > 43.5 µg/mL to 18.2 µg/mL (≈ 53.3 µM).

`CC1(CCC(=O)N2CCCC(Nc3ccc(F)cc3)C2)CC1` (configuration not stated) and `Cc1ccc(NC(=O)N2CCCC(C(=O)O)C2)cc1` (configuration not stated) cannot be ordered by solubility kinetic: > 45.7 µg/mL for the first, > 39.3 µg/mL for the second.

First: COc1cccc(CN2CCSCC2)c1OC
Second: Cc1ccc(CN2CCN(c3ccccc3)CC2)o1.O=C(O)C(=O)O
The solubility kinetic of the first is 2-fold lower: 24.2 µg/mL (≈ 95.5 µM) for the first, 49.1 µg/mL for the second.

`N#Cc1c(C(F)(F)F)cc(=O)[nH]c1SCC(=O)O` and `O=c1[nH]cnc(O)c1C(c1ccc(F)cc1)c1c(O)nc[nH]c1=O` cannot be ordered by solubility kinetic: > 41.7 µg/mL for the first, > 49.5 µg/mL for the second.

Going from `O=C(NCCNC(=O)c1cnccn1)c1ccc(Cl)cc1` to `S=C(NCc1ccc(Cl)cc1)NCc1ccco1`, the solubility kinetic falls from > 45.7 µg/mL to 39.5 µg/mL (≈ 141 µM).

Going from `CCOc1ccc(NC(=S)NC23CN4CN(CN(C4)C2)C3)cc1` to `CCN(CC)S(=O)(=O)c1cc(NC(=S)NC(=O)C2CCCC2)ccc1C`, the solubility kinetic falls from > 50 µg/mL to 6.1 µg/mL (≈ 15.3 µM).

Going from `CC(=O)Oc1c(C(C)C)cc(N(C(C)=O)c2ccccc2)cc1C(C)C` to `COc1ccccc1C(=O)Nc1ccc(Nc2ccccc2)cc1`, the solubility kinetic falls from 41.5 µg/mL (≈ 117 µM) to < 0.3 µg/mL.

First: CC(C)c1ccc(NS(=O)(=O)c2cccc3cccnc23)cc1
Second: CC(C)S(=O)(=O)c1csc(NC(=O)Nc2ccc(Cl)cc2)c1
The solubility kinetic of the first is lower: < 0.3 µg/mL for the first, 2.8 µg/mL (≈ 7.8 µM) for the second.

`Cc1ccc(SCC(=O)NC2CC3CCC(C2)N3C)cc1` (configuration not stated) and `Cc1ccc(S(=O)(=O)NC2CC2)cc1` cannot be ordered by solubility kinetic: 45.1 µg/mL (≈ 148 µM) for the first, > 31.7 µg/mL for the second.

Going from `Cc1cccc(NC(=O)c2cccnc2)c1C` to `O=C(Nc1ccc2c(c1)CCC2)c1ccc(Cl)nc1`, the solubility kinetic falls from 24.1 µg/mL (≈ 107 µM) to 7.8 µg/mL (≈ 28.6 µM) (3.1-fold).

For `O=C(COC(=O)/C=C/c1ccco1)NCc1ccc(Cl)cc1Cl`, the solubility kinetic was 7.6 µg/mL (≈ 21.5 µM).
